Source: patent publication US12077503B2, “Substituted cyclic amides and their use as herbicides” (FMC CORPORATION, priority 2015, dated 2024)

Columns and labels:
Assay type in all cases: in vivo
[1] = test system: giant foxtail (Setaria faberii); experiment: Test A postemergence; conditions: Setaria faberi, post-emergence, 240 h; for pest or weed control at 125 g/ha: 125 g ai/ha, postemergence, visual injury on 0 to 100 scale (0 no effect, 100 complete control), approx. 10 d, read-out: Foxtail, Giant plant response rating; for pest or weed control at 31 g/ha: Postemergence, 31 g ai/ha, visual injury after approx. 10 d, 0 to 100 scale, 0 no effect, 100 complete control, read-out: Plant response rating, Foxtail, Giant
In short: (§1)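 Visual injury, scored on a 0–100 scale relative to untreated controls, was recorded about 10 d after application. Treatments were a preemergence soil spray over planted seeds or a postemergence spray on plants at the one- to two-leaf stage, 2 to 10 cm tall, all in loam soil–sand blend in the greenhouse.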

[2] = test system: blackgrass (Alopecurus myosuroides); experiment: Test A postemergence; conditions: Alopecurus myosuroides, post-emergence, 240 h; for pest or weed control at 125 g/ha: 125 g ai/ha, postemergence, visual injury on 0 to 100 scale (0 no effect, 100 complete control), approx. 10 d, read-out: Blackgrass plant response rating; for pest or weed control at 31 g/ha: Postemergence, 31 g ai/ha, visual injury after approx. 10 d, 0 to 100 scale, 0 no effect, 100 complete control, read-out: Plant response rating, Blackgrass
In short: as §1

[3] = test system: Kochia (Kochia scoparia); experiment: Test A postemergence; conditions: Bassia scoparia, post-emergence, 240 h; for pest or weed control at 125 g/ha: 125 g ai/ha, postemergence, visual injury on 0 to 100 scale (0 no effect, 100 complete control), approx. 10 d, read-out: Kochia plant response rating; for pest or weed control at 31 g/ha: Postemergence, 31 g ai/ha, visual injury after approx. 10 d, 0 to 100 scale, 0 no effect, 100 complete control, read-out: Plant response rating, Kochia
In short: as §1

[4] = test system: barnyardgrass (Echinochloa crus-galli); experiment: Test A postemergence; conditions: Echinochloa crus-galli, post-emergence, 240 h; for pest or weed control at 125 g/ha: 125 g ai/ha, postemergence, visual injury on 0 to 100 scale (0 no effect, 100 complete control), approx. 10 d, read-out: Barnyardgrass plant response rating; for pest or weed control at 31 g/ha: Postemergence, 31 g ai/ha, visual injury after approx. 10 d, 0 to 100 scale, 0 no effect, 100 complete control, read-out: Plant response rating, Barnyardgrass
In short: as §1

[5] = test system: ryegrass, Italian (Italian ryegrass, Lolium multiflorum); experiment: Test A postemergence; conditions: Lolium multiflorum, post-emergence, 240 h; for pest or weed control at 125 g/ha: 125 g ai/ha, postemergence, visual injury on 0 to 100 scale (0 no effect, 100 complete control), approx. 10 d, read-out: Ryegrass, Italian plant response rating; for pest or weed control at 31 g/ha: Postemergence, 31 g ai/ha, visual injury after approx. 10 d, 0 to 100 scale, 0 no effect, 100 complete control, read-out: Plant response rating, Ryegrass, Italian
In short: as §1

[6] = test system: corn (Zea mays); experiment: Test A postemergence; conditions: Zea mays, post-emergence, 240 h; for plant injury at 125 g/ha: 125 g ai/ha, postemergence, visual injury on 0 to 100 scale (0 no effect, 100 complete control), approx. 10 d, read-out: Corn plant response rating; for Corn plant response rating (crop injury, 0 = no effect, 100 = complete kill) at 31 g/ha: Postemergence, 31 g ai/ha, visual injury after approx. 10 d, 0 to 100 scale, 100 complete control
In short: as §1

[7] = test system: pigweed (Amaranthus retroflexus); experiment: Test A postemergence; conditions: Amaranthus retroflexus, post-emergence, 240 h; for pest or weed control at 125 g/ha: 125 g ai/ha, postemergence, visual injury on 0 to 100 scale (0 no effect, 100 complete control), approx. 10 d, read-out: Pigweed plant response rating; for pest or weed control at 31 g/ha: Postemergence, 31 g ai/ha, visual injury after approx. 10 d, 0 to 100 scale, 0 no effect, 100 complete control, read-out: Plant response rating, Pigweed
In short: as §1

[8] = test system: Galium (catchweed bedstraw, Galium aparine); experiment: Test A postemergence; conditions: Galium, post-emergence, 240 h; for pest or weed control at 125 g/ha: 125 g ai/ha, postemergence, visual injury on 0 to 100 scale (0 no effect, 100 complete control), approx. 10 d, read-out: Galium plant response rating; for pest or weed control at 31 g/ha: Postemergence, 31 g ai/ha, visual injury after approx. 10 d, 0 to 100 scale, 0 no effect, 100 complete control, read-out: Plant response rating, Galium
In short: as §1

[9] = test system: wheat (Triticum aestivum); experiment: Test A postemergence; conditions: Triticum aestivum, post-emergence, 240 h; for plant injury at 125 g/ha: 125 g ai/ha, postemergence, visual injury on 0 to 100 scale (0 no effect, 100 complete control), approx. 10 d, read-out: Wheat plant response rating; for plant injury at 31 g/ha: Postemergence, 31 g ai/ha, visual injury after approx. 10 d, 0 to 100 scale, 0 no effect, 100 complete control, read-out: Plant response rating, Wheat
In short: as §1

[10] = test system: ragweed (common ragweed, Ambrosia elatior); experiment: Test A postemergence; conditions: Ambrosia artemisiifolia, post-emergence, 240 h; for pest or weed control at 125 g/ha: 125 g ai/ha, postemergence, visual injury on 0 to 100 scale (0 no effect, 100 complete control), approx. 10 d, read-out: Ragweed plant response rating; for pest or weed control at 31 g/ha: Postemergence, 31 g ai/ha, visual injury after approx. 10 d, 0 to 100 scale, 0 no effect, 100 complete control, read-out: Plant response rating, Ragweed
In short: as §1

[11] = test system: Kochia (Kochia scoparia); experiment: Test A preemergence; conditions: Bassia scoparia, pre-emergence, 240 h, 0 to 100 scale where 0 is no effect and 100 is complete control, read-out: Kochia plant response rating; for pest or weed control at 31 g/ha: 31 g ai/ha, Preemergence; for pest or weed control at 125 g/ha: 125 g ai/ha, preemergence, approx. 10 d
In short: as §1

[12] = test system: barnyardgrass (Echinochloa crus-galli); experiment: Test A preemergence; conditions: Echinochloa crus-galli, pre-emergence, 240 h, Preemergence; for pest or weed control at 31 g/ha: 31 g ai/ha, 0 to 100 scale where 0 is no effect and 100 is complete control, read-out: Barnyardgrass plant response rating; for pest or weed control at 125 g/ha: 125 g ai/ha, visual injury rating after approximately 10 d, read-out: Barnyardgrass plant response rating (0 to 100 scale, 0 is no effect, 100 is complete control)
In short: as §1

[13] = test system: ryegrass, Italian (Italian ryegrass, Lolium multiflorum); experiment: Test A preemergence; conditions: Lolium multiflorum, pre-emergence, 240 h, 0 to 100 scale where 0 is no effect and 100 is complete control, read-out: Ryegrass, Italian plant response rating; for pest or weed control at 31 g/ha: 31 g ai/ha, Preemergence; for pest or weed control at 125 g/ha: 125 g ai/ha, preemergence, approx. 10 d
In short: as §1

[14] = test system: pigweed (Amaranthus retroflexus); experiment: Test A preemergence; conditions: Amaranthus retroflexus, pre-emergence, 240 h, 0 to 100 scale where 0 is no effect and 100 is complete control, read-out: Pigweed plant response rating; for pest or weed control at 31 g/ha: 31 g ai/ha, Preemergence; for pest or weed control at 125 g/ha: 125 g ai/ha, preemergence, approx. 10 d
[15] = test system: ragweed (common ragweed, Ambrosia elatior); experiment: Test A preemergence; conditions: Ambrosia artemisiifolia, pre-emergence, 240 h, 0 to 100 scale where 0 is no effect and 100 is complete control, read-out: Ragweed plant response rating; for pest or weed control at 31 g/ha: 31 g ai/ha, Preemergence; for pest or weed control at 125 g/ha: 125 g ai/ha, preemergence, approx. 10 d
In short: as §1

| Structure (SMILES) | pest or weed control at 125 g/ha [1] | pest or weed control at 31 g/ha [1] | pest or weed control at 125 g/ha [2] | pest or weed control at 31 g/ha [2] | pest or weed control at 125 g/ha [3] | pest or weed control at 31 g/ha [3] | pest or weed control at 125 g/ha [4] | pest or weed control at 31 g/ha [4] | pest or weed control at 125 g/ha [5] | pest or weed control at 31 g/ha [5] | plant injury at 125 g/ha [6] | Corn plant response rating (crop injury, 0 = no effect, 100 = complete kill) at 31 g/ha [6] | pest or weed control at 125 g/ha [7] | pest or weed control at 31 g/ha [7] | pest or weed control at 125 g/ha [8] | pest or weed control at 31 g/ha [8] | plant injury at 125 g/ha [9] | plant injury at 31 g/ha [9] | pest or weed control at 125 g/ha [10] | pest or weed control at 31 g/ha [10] | also measured |
| --- | --- | --- | --- | --- | --- | --- | --- | --- | --- | --- | --- | --- | --- | --- | --- | --- | --- | --- | --- | --- | --- |
| COc1cccc([C@H]2CN(C)C(=O)[C@@H]2C(=O)Nc2cccc(F)c2F)c1 [Compound 1062] | 90% | 90% | 30% | 0% | 0% | 0% | 90% | 70% | 20% | 0% | 0% | 0% | 0% | 0% | 50% | 0% | 30% | 0% | 30% | 30% | pest or weed control at 31 g/ha [11]: 0%; pest or weed control at 125 g/ha [11]: 20%; pest or weed control at 31 g/ha [12]: 100%; pest or weed control at 125 g/ha [12]: 100%; pest or weed control at 31 g/ha [13]: 10%; pest or weed control at 125 g/ha [13]: 20%; pest or weed control at 31 g/ha [14]: 0%; pest or weed control at 125 g/ha [14]: 0%; pest or weed control at 31 g/ha [15]: 70%; pest or weed control at 125 g/ha [15]: 0% |
| COc1cccc([C@H]2CN(C)C(=O)[C@@H]2C(=O)Nc2ccc(F)c(F)c2F)c1 [Compound 1063] | 90% | 80% | 30% | 20% | 0% | 0% | 90% | 70% | 30% | 0% | 50% | 0% | 20% | 0% | 50% | 30% | 40% | 0% | 0% | 0% | pest or weed control at 31 g/ha [11]: 10%; pest or weed control at 125 g/ha [11]: 20%; pest or weed control at 31 g/ha [12]: 100%; pest or weed control at 125 g/ha [12]: 100%; pest or weed control at 31 g/ha [13]: 0%; pest or weed control at 125 g/ha [13]: 0%; pest or weed control at 31 g/ha [14]: 0%; pest or weed control at 125 g/ha [14]: 0%; pest or weed control at 31 g/ha [15]: 0%; pest or weed control at 125 g/ha [15]: 30% |
